Read-outs that look alike come from different tables or passages of the source. Where a SMILES comes first, the peptide text is derived from it. Bridges are numbered along the chain shown (N, C = ends). [ ]: non-standard residue; d: D form. The star is where a group is joined. 5FAM = O=C1OC2(c3ccc(O)cc3Oc3cc(O)ccc32)c2ccc(C(=O)*)cc21; NMeI = CC[C@H](C)[C@H](NC)C(=O)O; Sar = CNCC(=O)O
What was measured:
[1] = Peptide stability in human plasma (in vitro); type: in vitro ADME; details: human blood plasma, 200 μM peptide, 37° C.
Protocol: Peptide Stability in Human Plasma (In Vitro)
Peptides were dissolved in human blood plasma (obtained from voluntary healthy donors) at a concentration of 200 μM and incubated at 37° C. for various time intervals. Following quenching (1/1) with aqueous trichloroacetic acid (10%), solutions were incubated on ice for 10 min, subjected to centrifugation to precipitate plasma proteins (20200 g; 4 min), and the supernatants were mixed (1/2) with a solution consisting of 80% HPLC buffer B and 20% HPLC buffer A (see below). To quantify intact peptide at different time points, solutions containing the supernatants were analyzed by RP-HPLC (detection at 214 nm) by using a Nucleosil 100 C18 column (Grace) (length 33 mm length, ID 8 mm, 7 μm particle size) with a flow rate of 2.0 ml/min and eluting buffers A, 0.058% (v/v) TFA in water, and B, 0.05% (v/v) TFA in 90% (v/v) CH3CN in water. The elution gradient was 10-90% B in A over 8 min; this step was followed by a 90-10% B in A over 3 min step to establish starting conditions. HPLC fractions were collected, lyophilized, and analyzed by MALDI-TOF-MS using a Bruker Daltonik MALDI-TOF MS instrument.

Aβ40 [2] = target: T1, Aβ40 (Homo sapiens, UniProt P05067); test: MTT reduction assay: IC50 of inhibitory effect on cell-damaging amyloid self-assembly of Aβ40 (PC12 cells); type: cell-based
T1 construct: Aβ40 (TFA salt) was synthesized by Fmoc-based solid phase synthesis (SPPS); made in house; host or cells: chemical synthesis (Fmoc SPPS on Tentagel R PHB resin)
Protocol: (§1) Assessment of Cell Damage by MTT Reduction Assay
(§2) Both cell lines were cultured and plated in 96-well plates as described. […] Following incubation with the cells for ˜20 h (37° C., humidified atmosphere with 5% CO2), the MTT reduction assay was used to assess cell damage/metabolic activity as previously described.

[3] = target: recombinant human neprilysin (NEP) (Homo sapiens, UniProt P08473); details: peptide 100 μM, NEP 500 ng/ml, pH 6.5, 37° C.
From the text: Peptide Stability Toward Degradation by Human Neprilysin (In Vitro)
At indicated time points aliquots were quenched (1/1) with aqueous trichloroacetic acid (10%) and solutions were subjected to HPLC analysis and HPLC fractions were collected and analyzed by MALDI-TOF-MS as described under “Peptide stability in human plasma” (above).

hCMEC/D3 cells = test: Human BBB Transwell permeability assay (in vitro); details: hCMEC monolayer on Transwell; peptides 10 μM, Lucifer yellow 20 μM; mean (±SEM)
Protocol: Human BBB Transwell Permeability Assay (In Vitro)
Human cerebral microvascular endothelial (hCMEC/D3) cells (Merck) were cultured in collagen type I-coated dishes in EndoGro-MV complete culture media kit supplemented with 1 ng/mL fibroblast growth factor-2 (FGF-2) (all reagents from Merck) (at 37° C. and 5% CO2). […] The Transwell permeability assay was then performed based on a previously established assay using 24-well plates (Sigma-Aldrich) containing 6.5 mm Transwell inserts (0.4 μm pore polycarbonate membrane (Corning)) as follows:
hCMEC/D3 cells were grown in endothelial cell medium (ECM), containing EndoGro-MV complete media, 10% fetal bovine serum (FBS), 1% penicillin-streptamycine (P/S), and 1 ng/mL FGF-2 on the membranes of the Transwell inserts (2×10^5 cells/insert) (37° C. and 5% CO2) until full confluency was reached (normally after 5-7 days of culture). Confluency and BBB-type tightness was verified by TEER analysis; TEER values of 60-80 Ωcm^2 were obtained. The upper and lower chambers then were reconstituted with 200 μl and 800 μl, respectively, of ECM containing 2% FBS. The N-terminal fluorescein-labeled 12 amino acid-long peptide [sequence]-amide (Fluos-Trfb) known to readily cross the BBB via binding to the transferrin receptor, was used as a positive control for BBB permeability in this model.
As a reference point for the maximum fluorescence intensity, 100 μl of medium from the upper chamber at 0 h was also transferred and quantified. […] Lucifer yellow in the lower chamber was quantified by measuring the fluorescence at 530 nm (excitation at 485 nm). Relative permeability (FIG. 3f) was calculated by dividing the fluorescence value of the aliquot from the lower chamber at each time point by the fluorescence value of the 0 h-lower chamber aliquot.
Reported Papp values are means (±SEM) from at least 3 transport assays (each of them performed in triplicates).

IAPP [4] = target: T2, IAPP (Homo sapiens, UniProt P10997); test: Fluorescence spectroscopic titration of Fluos-IAPP; type: binding; design: IAPP was synthesized by SPPS and the Fmoc-strategy on RINK resin, subjected to air oxidation and purified by RP-HPLC; made in house; host or cells: chemical synthesis (Fmoc SPPS on RINK resin, air oxidation); details: Fluos-IAPP 5 nM, pH 7.4
T2 sequence (P10997 34-70 limits assumed): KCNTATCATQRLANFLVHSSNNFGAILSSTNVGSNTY
Protocol: (§3) Fluorescence Spectroscopic Titration Studies
(§4) A JASCO FP-6500 fluorescence spectrophotometer was used for the fluorescence spectroscopic titrations, which were performed by using previously described experimental protocols. […] App. […] Briefly, freshly made stock solutions of peptides and fluorescently labeled analogs in HFIP were used. Measurements were performed in 10 mM sodium phosphate buffer, pH 7.4 ([…]) at room temperature within 2-5 min following solution preparation. […] App. Kds were estimated using 1/1 binding models as previously described. […] KdDs are means (+SD) from three binding curves.

IAPP [5] = target: T2, IAPP; test: MTT reduction assay: IC50 of inhibitory effect on cell-damaging amyloid self-assembly of IAPP (RIN5fm cells)
Protocol: as §1, §2

Aβ40 [6] = target: T1, Aβ40; test: Fluorescence spectroscopic titration of Dac-Aβ40; type: binding; details: Dac-Aβ40 10 nM, pH 7.4
Protocol: as §3, §4

[7] = RP-HPLC and MALDI-TOF-MS, read-out: Half-life time in human plasma
[8] = Aβ40 500 nM, 72 h-aged solutions, PC12 cells, MTT reduction, means (±SD) from 3-4 titration assays, read-out: IC50 (±SD) (nM) Aβ40 inhibition

T1 sequence (P05067 672-711): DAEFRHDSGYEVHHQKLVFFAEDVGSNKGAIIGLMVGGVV
Sequence of recombinant human neprilysin (NEP) (P08473 whole entry): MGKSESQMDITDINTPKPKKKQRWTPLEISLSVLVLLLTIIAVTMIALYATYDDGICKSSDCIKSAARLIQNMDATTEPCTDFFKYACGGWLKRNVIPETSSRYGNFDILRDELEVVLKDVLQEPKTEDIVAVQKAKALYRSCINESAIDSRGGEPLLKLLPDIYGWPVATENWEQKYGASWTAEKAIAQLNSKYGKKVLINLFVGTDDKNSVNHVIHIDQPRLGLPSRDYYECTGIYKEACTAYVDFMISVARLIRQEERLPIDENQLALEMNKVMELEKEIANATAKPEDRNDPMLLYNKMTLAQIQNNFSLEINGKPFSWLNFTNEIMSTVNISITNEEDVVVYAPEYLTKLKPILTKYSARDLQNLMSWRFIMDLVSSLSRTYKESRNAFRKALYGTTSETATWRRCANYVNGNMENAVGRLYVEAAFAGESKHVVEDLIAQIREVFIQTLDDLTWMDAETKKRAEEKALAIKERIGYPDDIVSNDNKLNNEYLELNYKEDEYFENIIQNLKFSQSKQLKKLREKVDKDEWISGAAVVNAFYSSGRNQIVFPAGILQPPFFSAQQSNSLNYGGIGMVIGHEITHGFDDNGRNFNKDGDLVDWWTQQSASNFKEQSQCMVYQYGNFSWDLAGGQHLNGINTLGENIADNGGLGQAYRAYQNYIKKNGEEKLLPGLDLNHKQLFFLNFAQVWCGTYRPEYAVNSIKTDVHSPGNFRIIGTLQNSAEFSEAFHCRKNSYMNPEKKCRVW

Which half-life at 200 μM [1, 7] does the source give for `CC[C@H](C)[C@H]1C(=O)NCC(=O)NCC(=O)N[C@@H](C(N)=O)CSSC[C@@H](N)C(=O)NCC(=O)N[C@H](Cc2ccccc2)C(=O)N[C@H](CC(C)C)C(=O)NCC(=O)NCC(=O)N[C@H](CCCNC(=N)N)C(=O)N[C@H](CCCNC(=N)N)C(=O)N[C@H](CCCNC(=N)N)C(=O)NCC(=O)N[C@H](Cc2ccccc2)C(=O)N(C)CC(=O)NCC(=O)N1C` [Peptide 2e] (H-[dC]G[dF][dL]GG[dR][dR][dR]G[dF][Sar]G[NMeI]GG[dC]-NH2; disulfide 1-17) here?
The half-life at 200 μM was > 11 h.

What about the IC50 (Aβ40 [2]) of the same compound?
Its IC50 is 542 nM.

What about the “Resistance to degradation by human neprilysin” value [3] of the same compound?
The value was “fully resistant to degradation”.

Which half-life at 200 μM [1, 7] does the source give for `CC[C@H](C)[C@H]1C(=O)NCC(=O)NCC(=O)N[C@H](C(N)=O)CSSC[C@H](N)C(=O)NCC(=O)N[C@@H](Cc2ccccc2)C(=O)N[C@@H](CC(C)C)C(=O)NCC(=O)NCC(=O)N[C@H](CCCNC(=N)N)C(=O)N[C@H](CCCNC(=N)N)C(=O)N[C@H](CCCNC(=N)N)C(=O)NCC(=O)N[C@@H](Cc2ccccc2)C(=O)N(C)CC(=O)NCC(=O)N1C` [Peptide 2c] (H-CGFLGG[dR][dR][dR]GF[Sar]G[NMeI]GGC-NH2; disulfide 1-17) here?
Its half-life at 200 μM is 1 to 2 h.

What about the IC50 (Aβ40 [2]; [8]) of the same compound?
The IC50 was 204 nM.

With Lucifer yellow as the compound, how does the “Apparent permeability (Papp) at 2 h” value (hCMEC/D3 cells) read?
The value was 5.3×10^−6 (±2.7) cm/s.

Which “app. Kd of interaction with N-terminal fluorescently labeled IAPP” value (IAPP [4]) does the source give for `CC[C@H](C)[C@H]1C(=O)N[C@@H](CC(C)C)C(=O)N[C@@H](CO)C(=O)N[C@H](C(N)=O)CSSC[C@H](N)C(=O)N[C@@H](CC(N)=O)C(=O)N[C@@H](Cc2ccccc2)C(=O)N[C@@H](CC(C)C)C(=O)N[C@@H](C(C)C)C(=O)N[C@@H](Cc2c[nH]cn2)C(=O)N[C@@H](CCCNC(=N)N)C(=O)N[C@@H](CCCNC(=N)N)C(=O)N[C@@H](CCCNC(=N)N)C(=O)N[C@@H](CC(N)=O)C(=O)N[C@@H](Cc2ccccc2)C(=O)N(C)CC(=O)N[C@@H](C)C(=O)N1C` [Peptide 2a] (H-CNFLVHRRRNF[Sar]A[NMeI]LSC-NH2; disulfide 1-17; N-terminus assumed) here?
The value was “mid-nanomolar”.

What about the “Potency against IAPP cytotoxic self-assembly relative to 1a” value (IAPP [5]; ratio of IC50s) of the same compound?
The value was ~3 fold.

What about the “app. Kd of interaction with N-terminal fluorescently labeled Aβ40” value (Aβ40 [6]) of the same compound?
The value was “mid-nanomolar”.

For `CSCC[C@H](NC(=O)[C@@H]1CCCN1C(=O)[C@@H]1CCCN1C(=O)[C@H](CCCNC(=N)N)NC(=O)[C@H](Cc1c[nH]cn1)NC(=O)[C@@H](NC(=O)c1ccc2c(c1)C(=O)OC21c2ccc(O)cc2Oc2cc(O)ccc21)[C@@H](C)O)C(=O)N[C@@H](Cc1c[nH]c2ccccc12)C(=O)N[C@@H](CO)C(=O)N1CCC[C@H]1C(=O)N[C@H](C(=O)N[C@@H](Cc1c[nH]c2ccccc12)C(=O)N1CCC[C@H]1C(N)=O)C(C)C` [Fluos-Trfb, reference compound] (5FAM-THRPPMWSPVWP-NH2; N-terminus assumed), which Papp A→B is on record?
Its Papp A→B is 20.8 ×10⁻⁶ cm/s.

Which results are given for `CC[C@H](C)[C@H]1C(=O)N[C@@H](CC(C)C)C(=O)N[C@@H](CO)C(=O)N[C@H](C(N)=O)CSSC[C@H](N)C(=O)N[C@@H](C)C(=O)N[C@@H]([C@@H](C)O)C(=O)N[C@@H](CCC(N)=O)C(=O)N[C@@H](CCCNC(=N)N)C(=O)N[C@@H](CC(C)C)C(=O)N[C@@H](C)C(=O)N[C@@H](CC(N)=O)C(=O)N[C@@H](Cc2ccccc2)C(=O)N[C@@H](CC(C)C)C(=O)N[C@@H](C(C)C)C(=O)N[C@@H](Cc2c[nH]cn2)C(=O)N[C@@H](CCCNC(=N)N)C(=O)N[C@@H](CCCNC(=N)N)C(=O)N[C@@H](CCCNC(=N)N)C(=O)N[C@@H](CC(N)=O)C(=O)N[C@@H](Cc2ccccc2)C(=O)N(C)CC(=O)N[C@@H](C)C(=O)N1C` [Peptide 1a] (H-CATQRLANFLVHRRRNF[Sar]A[NMeI]LSC-NH2; disulfide 1-23; N-terminus assumed)?
app. Kd of interaction with N-terminal fluorescently labeled IAPP (IAPP [4]): mid-nanomolar; app. Kd of interaction with N-terminal fluorescently labeled Aβ40 (Aβ40 [6]): mid-nanomolar

Which half-life at 200 μM [1, 7] does the source give for `CC[C@H](C)[C@H]1C(=O)NCC(=O)NCC(=O)N[C@H](C(N)=O)CSSC[C@H](N)C(=O)NCC(=O)N[C@H](Cc2ccccc2)C(=O)N[C@H](CC(C)C)C(=O)NCC(=O)NCC(=O)N[C@H](CCCNC(=N)N)C(=O)N[C@H](CCCNC(=N)N)C(=O)N[C@H](CCCNC(=N)N)C(=O)NCC(=O)N[C@H](Cc2ccccc2)C(=O)N(C)CC(=O)NCC(=O)N1C` [Peptide 2d] (H-CG[dF][dL]GG[dR][dR][dR]G[dF][Sar]G[NMeI]GGC-NH2; disulfide 1-17) here?
The half-life at 200 μM was 1 to 2 h.

What about the IC50 (Aβ40 [2]; [8]) of the same compound?
Its IC50 is 703 nM.

With `CC[C@H](C)[C@H]1C(=O)NCC(=O)NCC(=O)N[C@@H](C(N)=O)CSSC[C@@H](NC(=O)c2ccc3c(c2)C(=O)OC32c3ccc(O)cc3Oc3cc(O)ccc32)C(=O)NCC(=O)N[C@H](Cc2ccccc2)C(=O)N[C@H](CC(C)C)C(=O)NCC(=O)NCC(=O)N[C@H](CCCNC(=N)N)C(=O)N[C@H](CCCNC(=N)N)C(=O)N[C@H](CCCNC(=N)N)C(=O)NCC(=O)N[C@H](Cc2ccccc2)C(=O)N(C)CC(=O)NCC(=O)N1C` [Fluos-2e] (5FAM-[dC]G[dF][dL]GG[dR][dR][dR]G[dF][Sar]G[NMeI]GG[dC]-NH2; disulfide 1-17; N-terminus assumed) as the compound, how does the Papp A→B read?
Its Papp A→B is 14.6 ×10⁻⁶ cm/s.

Which results are given for `CC[C@H](C)[C@H]1C(=O)NCC(=O)NCC(=O)N[C@H](C(N)=O)CSSC[C@H](N)C(=O)NCC(=O)N[C@@H](Cc2ccccc2)C(=O)N[C@@H](CC(C)C)C(=O)NCC(=O)NCC(=O)N[C@@H](CCCNC(=N)N)C(=O)N[C@@H](CCCNC(=N)N)C(=O)N[C@@H](CCCNC(=N)N)C(=O)NCC(=O)N[C@@H](Cc2ccccc2)C(=O)N(C)CC(=O)NCC(=O)N1C` [Peptide 2b] (H-CGFLGGRRRGF[Sar]G[NMeI]GGC-NH2; disulfide 1-17)?
half-life at 200 μM ([1]; read-out: t1/2 in human plasma): ~0.75 h; IC50 (Aβ40 [2]): 654 nM; app. Kd of interaction with N-terminal fluorescently labeled IAPP (IAPP [4]): mid-nanomolar; IC50 (IAPP [5]): 426 nM; app. Kd of interaction with N-terminal fluorescently labeled Aβ40 (Aβ40 [6]): mid-nanomolar

Source: US11498943B2, “Amyloid inhibitory peptides” (TECHNISCHE UNIVERSITÄT MÜNCHEN, priority 2018, dated 2022)
